Legend:
soybean LOX-1 [1] = biological target: T1, soybean LOX-1 (Glycine max, UniProt P08170); experiment: Kinetics of oxygenation of docosahexaenoic acid derivatives by soybean LOX-1; type: biochemical; conditions: soybean LOX-1 2.5 units/ml, 50 mM borax buffer pH 9.0, 25° C.
T1 construct: purchased Sigma-Aldrich Corp (St. Louis, Mo., USA) lipoxidase Type I-B
T1 sequence (P08170 1-839): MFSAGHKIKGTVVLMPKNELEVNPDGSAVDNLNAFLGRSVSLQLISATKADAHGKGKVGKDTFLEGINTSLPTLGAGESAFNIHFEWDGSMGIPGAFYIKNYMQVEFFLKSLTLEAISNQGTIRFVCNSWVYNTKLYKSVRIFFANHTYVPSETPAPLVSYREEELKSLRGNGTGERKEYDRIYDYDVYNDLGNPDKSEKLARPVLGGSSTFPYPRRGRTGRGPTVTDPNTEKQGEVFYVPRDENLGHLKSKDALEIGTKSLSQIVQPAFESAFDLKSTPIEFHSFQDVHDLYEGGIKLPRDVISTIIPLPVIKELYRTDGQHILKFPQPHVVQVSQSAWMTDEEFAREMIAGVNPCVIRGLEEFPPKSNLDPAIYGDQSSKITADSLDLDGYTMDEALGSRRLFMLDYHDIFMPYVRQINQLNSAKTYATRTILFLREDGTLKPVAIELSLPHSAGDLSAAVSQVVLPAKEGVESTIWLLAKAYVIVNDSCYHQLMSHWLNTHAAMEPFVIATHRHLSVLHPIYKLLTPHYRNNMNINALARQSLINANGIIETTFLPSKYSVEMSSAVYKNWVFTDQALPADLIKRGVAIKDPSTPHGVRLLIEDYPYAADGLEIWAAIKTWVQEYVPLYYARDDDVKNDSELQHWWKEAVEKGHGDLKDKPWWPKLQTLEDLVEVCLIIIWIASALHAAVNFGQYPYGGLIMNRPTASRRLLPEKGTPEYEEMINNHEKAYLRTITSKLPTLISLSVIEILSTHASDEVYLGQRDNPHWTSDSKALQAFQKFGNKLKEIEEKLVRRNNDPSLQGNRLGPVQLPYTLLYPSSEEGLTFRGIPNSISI
Method: Soybean LOX-1 (2.5 units/ml) was incubated with docosahexaenoyl-lysoPC, didocosahexaenoyl-lysoPC or docosahexaenoic acid of various concentrations in 500 μl of 50 mM borax buffer (pH 9.0) at 25° C. Values were expressed as means ±S.D. of results from at least three independent experiments.

soybean LOX-1 [2] = biological target: T1, soybean LOX-1; experiment: Kinetics of oxygenation of arachidonic acid or arachidonoyl-lysophospholipids by soybean LOX-1; type: biochemical; conditions: soybean LOX-1 2.5 units/ml, 50 mM borax buffer pH 9.0; unit = one nanomole conjugated diene per min
Method: (§1) Activities of various LOXs were monitored by measuring the increase in absorbance at 234 nm due to the formation of hydroperoxide (ε234=25,000 M^−1 cm^−1) at 25° C. as described before (Smith et al, J. Biol. Chem. 247 (1972) 1038-1047). One unit is defined as the amount of LOXs that can produce one nanomole of conjugated diene per min. The reaction mixture (500 μl) included reticulocyte LOX (2 units/ml) in 50 mM phosphate buffer (pH 7.4), porcine leukocyte LOX (1 unit/ml) in 100 mM phosphate buffer (pH 7.5) containing 5 mM EDTA and 0.03% Tween 20, or soybean LOX-1 (2.5 units/ml) in 50 mM borax buffer (pH 9.0) at 25° C. The reactions were started by including each substrate (100 μM) into the above reaction mixture.
(§2) Reticulocyte LOX (2 units/ml), leukocyte LOX (1 units/ml) or soybean LOX-1 (2.5 units/ml) was incubated with each arachidonoyl derivative substrate of various concentrations as described above. The values of kinetic parameters were obtained according to Lineweaver Burke plot analyses as described before (Barroso et al, J. Chromatogr. B. Analyt. Technol. Biomed. Life. Sci. 814 (2005) 21-28).

[3] = biological target: T2, Leukocyte 12-lipoxygenase (leukocyte LOX) (Sus scrofa, UniProt P16469); experiment: Kinetics of oxygenation of arachidonic acid or arachidonoyl-lysophospholipids by leukocyte LOX; type: biochemical, porcine; conditions: leukocyte LOX 1 unit/ml, 100 mM phosphate buffer pH 7.5, 5 mM EDTA, 0.03% Tween 20
T2 construct: purchased Cayman Chemical Co. (Ann Arbor, Mich., USA)
T2 sequence (P16469 1-663): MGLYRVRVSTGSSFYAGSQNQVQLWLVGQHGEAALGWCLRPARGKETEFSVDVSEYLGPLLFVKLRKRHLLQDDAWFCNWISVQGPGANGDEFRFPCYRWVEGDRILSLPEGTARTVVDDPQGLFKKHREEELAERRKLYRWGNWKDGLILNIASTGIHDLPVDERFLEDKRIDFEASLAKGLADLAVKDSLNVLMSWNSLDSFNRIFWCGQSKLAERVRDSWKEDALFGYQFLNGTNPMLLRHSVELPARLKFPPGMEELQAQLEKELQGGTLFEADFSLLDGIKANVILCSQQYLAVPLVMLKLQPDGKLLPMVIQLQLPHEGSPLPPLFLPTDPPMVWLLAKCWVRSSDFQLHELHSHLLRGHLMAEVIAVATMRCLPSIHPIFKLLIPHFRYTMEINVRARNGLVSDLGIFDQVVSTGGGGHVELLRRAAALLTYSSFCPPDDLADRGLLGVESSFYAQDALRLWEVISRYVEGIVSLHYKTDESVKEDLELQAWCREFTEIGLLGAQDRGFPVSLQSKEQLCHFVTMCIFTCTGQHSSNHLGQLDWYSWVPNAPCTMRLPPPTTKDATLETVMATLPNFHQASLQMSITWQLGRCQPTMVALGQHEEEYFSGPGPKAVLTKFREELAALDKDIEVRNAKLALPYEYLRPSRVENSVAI
Method: as §1, §2

Reticulocyte LOX = biological target: T3, Reticulocyte LOX (Oryctolagus cuniculus, UniProt P12530); experiment: Kinetics of oxygenation of linoleoylated substrates by reticulocyte LOX; type: biochemical, Rabbit; conditions: reticulocyte LOX 8.2 units/ml, 50 mM phosphate buffer pH 7.4, 25° C.; for Km: substrate 3-100 μM
T3 construct: purchased Biomol Inc. (Plymouth Meeting, Pa., USA)
T3 sequence (P12530 1-663): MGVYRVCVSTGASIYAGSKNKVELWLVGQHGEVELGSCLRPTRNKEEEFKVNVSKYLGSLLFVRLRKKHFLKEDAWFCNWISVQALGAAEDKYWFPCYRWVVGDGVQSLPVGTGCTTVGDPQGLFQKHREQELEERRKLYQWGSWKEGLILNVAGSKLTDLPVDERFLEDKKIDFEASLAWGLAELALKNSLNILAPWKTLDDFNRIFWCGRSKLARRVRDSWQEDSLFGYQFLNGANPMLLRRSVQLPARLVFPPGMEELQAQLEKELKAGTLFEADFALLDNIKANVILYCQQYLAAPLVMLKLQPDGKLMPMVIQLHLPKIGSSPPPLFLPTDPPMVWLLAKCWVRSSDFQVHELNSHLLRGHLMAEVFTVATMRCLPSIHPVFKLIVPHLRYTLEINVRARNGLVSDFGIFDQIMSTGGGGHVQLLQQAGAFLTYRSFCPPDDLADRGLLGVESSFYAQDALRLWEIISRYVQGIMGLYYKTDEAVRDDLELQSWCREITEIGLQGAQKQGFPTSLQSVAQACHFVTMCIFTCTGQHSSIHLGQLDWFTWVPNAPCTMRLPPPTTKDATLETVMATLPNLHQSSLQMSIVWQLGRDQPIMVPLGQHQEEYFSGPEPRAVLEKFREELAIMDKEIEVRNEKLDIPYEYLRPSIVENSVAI
Text: (§3) Data were expressed as means ±S.D. of results from at least three independent experiments.

Porcine leukocyte LOX = biological target: T4, Porcine leukocyte LOX (Sus scrofa, UniProt P16469); experiment: Kinetics of oxygenation of linoleoylated substrates by leukocyte LOX; type: biochemical; conditions: porcine leukocyte LOX 1.5 units/ml, 100 mM phosphate buffer pH 7.5, 5 mM EDTA
T4 construct: purchased Cayman Chemical Co. (Ann Arbor, Mich., USA)
T4 sequence (P16469 1-663): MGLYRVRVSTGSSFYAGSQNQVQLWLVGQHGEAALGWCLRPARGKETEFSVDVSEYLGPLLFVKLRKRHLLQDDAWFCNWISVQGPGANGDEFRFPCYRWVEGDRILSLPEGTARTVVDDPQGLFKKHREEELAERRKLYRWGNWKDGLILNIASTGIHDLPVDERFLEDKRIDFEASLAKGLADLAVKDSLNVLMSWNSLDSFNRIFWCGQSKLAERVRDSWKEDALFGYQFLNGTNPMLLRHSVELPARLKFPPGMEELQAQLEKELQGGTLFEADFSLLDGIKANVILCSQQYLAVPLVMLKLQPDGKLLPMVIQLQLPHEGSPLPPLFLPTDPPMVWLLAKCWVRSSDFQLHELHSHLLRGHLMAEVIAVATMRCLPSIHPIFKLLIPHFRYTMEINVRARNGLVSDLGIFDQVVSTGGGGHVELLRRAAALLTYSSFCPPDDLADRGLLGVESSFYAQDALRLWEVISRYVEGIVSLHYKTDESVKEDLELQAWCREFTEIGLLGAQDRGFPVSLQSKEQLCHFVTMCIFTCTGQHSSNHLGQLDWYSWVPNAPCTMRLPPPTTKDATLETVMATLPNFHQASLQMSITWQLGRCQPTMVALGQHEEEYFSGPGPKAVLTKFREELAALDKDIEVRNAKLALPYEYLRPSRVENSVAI
Text: as §3

[4] = substrate: CCCCC/C=C\C/C=C\C/C=C\C/C=C\CCCC(=O)O; experiment: Kinetics of oxygenation of arachidonic acid or arachidonoyl-lysophospholipids by leukocyte LOX; type: biochemical, porcine; conditions: other: leukocyte LOX 1 unit/ml, 100 mM phosphate buffer pH 7.5, 5 mM EDTA, 0.03% Tween 20, 25° C.
Method: as §1, §2

[5] = substrate: CC/C=C\C/C=C\C/C=C\C/C=C\C/C=C\C/C=C\CCC(=O)O; experiment: Kinetics of oxygenation of docosahexaenoyl-lysoPC or docosahexaenoic acid by leukocyte LOX; type: biochemical; conditions: other: porcine leukocyte LOX 2 units/ml, 100 mM phosphate buffer pH 7.4, 5 mM EDTA, 0.03% Tween 20, 25° C.
Method: Porcine leukocyte LOX (2 units/ml) was incubated with each substrate docosahexaenoyl-lysoPC or docosahexaenoic acid of various concentrations in 500 μl of 100 mM phosphate buffer (pH 7.4) containing 5 mM EDTA and 0.03% Tween 20 at 25° C.

## didocosahexaenenoyl phosphatidylcholine [Didocosahexaenoyl-PC]
Soybean LOX-1 [1]
  Km: 1070 ± 184 µM
  Vm: 7.8 ± 0.3 units/μg

## CCCCC/C=C\C/C=C\C/C=C\C/C=C\CCCC(=O)O [Arachidonic acid, arachidonic acid]
Soybean LOX-1 [2]
  Vm: 92.2 units/μg
[3]
  Vm: 63.2 units/mg

## CCCCC/C=C\C/C=C\CCCCCCCC(=O)OCC(O)COP(=O)(O)O (stereo not shown) [Linoleoyl-lysoPA]
Reticulocyte LOX
  Vm: 443 ± 9 units/mg
  Km: 8.3 ± 0.6 µM
Porcine leukocyte LOX; 0.03% Tween 20
  Vm: 30.7 ± 0.78 units/mg
Porcine leukocyte LOX; substrate 3-100 μM, 0.03% Tween 20, 25° C.
  Km: 35.5 ± 3.77 µM

## CCCCC/C=C\C/C=C\CCCCCCCC(=O)OC[C@H](COP(=O)(O)O)OC(=O)CCCCCCC/C=C\C/C=C\CCCCC [Dilinoleoyl-PA]
Reticulocyte LOX
  Vm: 1029 ± 22 units/mg
  Km: 90 ± 7.3 µM

B1: Leukocyte 12-lipoxygenase (leukocyte LOX) (Sus scrofa) (protein)
chain: MGLYRVRVSTGSSFYAGSQNQVQLWLVGQHGEAALGWCLRPARGKETEFSVDVSEYLGPLLFVKLRKRHLLQDDAWFCNWISVQGPGANGDEFRFPCYRWVEGDRILSLPEGTARTVVDDPQGLFKKHREEELAERRKLYRWGNWKDGLILNIASTGIHDLPVDERFLEDKRIDFEASLAKGLADLAVKDSLNVLMSWNSLDSFNRIFWCGQSKLAERVRDSWKEDALFGYQFLNGTNPMLLRHSVELPARLKFPPGMEELQAQLEKELQGGTLFEADFSLLDGIKANVILCSQQYLAVPLVMLKLQPDGKLLPMVIQLQLPHEGSPLPPLFLPTDPPMVWLLAKCWVRSSDFQLHELHSHLLRGHLMAEVIAVATMRCLPSIHPIFKLLIPHFRYTMEINVRARNGLVSDLGIFDQVVSTGGGGHVELLRRAAALLTYSSFCPPDDLADRGLLGVESSFYAQDALRLWEVISRYVEGIVSLHYKTDESVKEDLELQAWCREFTEIGLLGAQDRGFPVSLQSKEQLCHFVTMCIFTCTGQHSSNHLGQLDWYSWVPNAPCTMRLPPPTTKDATLETVMATLPNFHQASLQMSITWQLGRCQPTMVALGQHEEEYFSGPGPKAVLTKFREELAALDKDIEVRNAKLALPYEYLRPSRVENSVAI
notes: purchased Cayman Chemical Co. (Ann Arbor, Mich., USA)
[4]
  Km: 7.7 µM
  Vmax: 63.2 ± 11.9 units/mg
  Vmax/Km: 8.2 ± 1.5 units/mg/μM

B2: Porcine leukocyte LOX (Sus scrofa) (protein)
chain: MGLYRVRVSTGSSFYAGSQNQVQLWLVGQHGEAALGWCLRPARGKETEFSVDVSEYLGPLLFVKLRKRHLLQDDAWFCNWISVQGPGANGDEFRFPCYRWVEGDRILSLPEGTARTVVDDPQGLFKKHREEELAERRKLYRWGNWKDGLILNIASTGIHDLPVDERFLEDKRIDFEASLAKGLADLAVKDSLNVLMSWNSLDSFNRIFWCGQSKLAERVRDSWKEDALFGYQFLNGTNPMLLRHSVELPARLKFPPGMEELQAQLEKELQGGTLFEADFSLLDGIKANVILCSQQYLAVPLVMLKLQPDGKLLPMVIQLQLPHEGSPLPPLFLPTDPPMVWLLAKCWVRSSDFQLHELHSHLLRGHLMAEVIAVATMRCLPSIHPIFKLLIPHFRYTMEINVRARNGLVSDLGIFDQVVSTGGGGHVELLRRAAALLTYSSFCPPDDLADRGLLGVESSFYAQDALRLWEVISRYVEGIVSLHYKTDESVKEDLELQAWCREFTEIGLLGAQDRGFPVSLQSKEQLCHFVTMCIFTCTGQHSSNHLGQLDWYSWVPNAPCTMRLPPPTTKDATLETVMATLPNFHQASLQMSITWQLGRCQPTMVALGQHEEEYFSGPGPKAVLTKFREELAALDKDIEVRNAKLALPYEYLRPSRVENSVAI
notes: as for B1
[5]
  Km: 17.6 ± 1.7 µM
  Vmax: 35.9 µmol/min/mg
  Vmax/Km: 2.1e+06 µL/min/mg
